Values joined by “and” are separate entries in the source; they are usually repeats but may differ in a detail not shown here. Identical values can stand only once. Like-named read-outs stand apart in the source and are kept apart here.
What was measured:
[1] = system: Plasmodium falciparum (Pf) (intraerythrocytic forms, NF54 strain); test: In vitro antiplasmodial activity; type: cell-based; conditions: for SI Pf (selectivity index): cytotoxicity L6 vs Pf
Method: (§1) After isolation, all alkaloids were tested in vitro for antiplasmodial and antitrypanosomal activity against Plasmodium falciparum (Pf) and Trypanosoma brucei rhodesiense (Tbr). Furthermore, to assess their selectivity against the parasites, cytotoxicity against L6 rat skeletal myoblasts, as mammalian control cells, was tested (Table 4).
(§2) In vitro assays for the bioactivity of the isolated Buxus-alkaloids against Tbr (bloodstream trypomastigotes, STIB 900 strain), Trypanosoma cruzi (Tc) (amastigotes, Tulahuen C4 strain), Leishmania donovani (Ldo) (amastigotes, MHOM-ET-67/L82 strain) and Pf (intraerythrocytic forms, NF54 strain), and cytotoxicity tests against mammalian cells (L6-cell line from rat-skeletal myoblasts), were performed at the Swiss Tropical and Public Health Institute (Swiss TPH, Basel, Switzerland) according to established standard protocols.

[2] = Cytotoxicity against mammalian control cells; type: cell-based, rat; conditions: rat
Method: as §1, §2

[3] = system: Trypanosoma brucei rhodesiense (Tbr) (bloodstream trypomastigotes, STIB 900 strain); test: In vitro antitrypanosomal activity; type: cell-based; conditions: for IC50 / Tbr IC50: STIB 900 strain; for SI Tbr (selectivity index): cytotoxicity L6 vs Tbr
Method: as §1
as §2, with “protocols. […] Such a pattern of activity was also observed in other studies.” for “protocols.”

[4] = system: L6 rat skeletal myoblasts; test: Cytotoxicity against mammalian control cells; type: cell-based; conditions: L6 cell line; for Cytotox. IC50: mean of n = 2 (fluctuation range) or * n = 3 (SD); for IC50: read-out: Cytotox. IC50 (in parentheses) (converted)
Method: as §1, §2

[5] = NF54 strain, read-out: Pf IC50 (in parentheses) (converted)
[6] = Plasmodium falciparum, NF54, NF54 strain, mean of n = 2 (fluctuation range) or * n = 3 (SD), read-out: Pf IC50
[7] = Plasmodium falciparum, NF54, NF54 strain, read-out: Pf IC50 (in parentheses) (converted)
[8] = Trypanosoma brucei, mean of n = 2 (fluctuation range) or * n = 3 (SD), read-out: Tbr IC50
[9] = Trypanosoma brucei, read-out: Tbr IC50 (in parentheses) (converted)
[10] = NF54 strain, mean of n = 2 (fluctuation range) or * n = 3 (SD)
[11] = mean of n = 2 (fluctuation range) or * n = 3 (SD)
[12] = read-out: Tbr IC50 (in parentheses) (converted)

Structure (SMILES)	IC50 ([1]; Plasmodium falciparum, NF54, read-out: Pf IC50) [µg/mL]	IC50 ([1]; Plasmodium falciparum, NF54, read-out: Pf IC50 (in parentheses)) [nM]	IC50 [2]	IC50 [1, 5] [nM]	IC50 [1, 6] [µg/mL]	IC50 [1, 7] [nM]	SI Pf (selectivity index) [1]	IC50 [3, 8] [µg/mL]	IC50 [3, 9] [nM]	SI Tbr (selectivity index) [3]	Cytotox. IC50 [4] [µg/mL]	IC50 [4] [nM]	Pf IC50 [1, 10] [µg/mL]	Tbr IC50 [3, 11] [µg/mL]	IC50 [3, 12] [nM]
CCN(CC)CCCC(C)Nc1ccnc2cc(Cl)ccc12 (stereo not drawn) [Chloroquine, reference compound]	0.006 ± 0.001	19	–	–	–	–	–	–	–	–	–	–	–	–	–
C/C=C(\C)C(=O)O[C@@H]1C[C@@]2(C)[C@@H]3C=C[C@H]4[C@](C)(CO)[C@@H](N(C)C)CC[C@@]45C[C@@]35CC[C@]2(C)[C@H]1[C@H](C)NC [Compound 3, O-tigloylcyclomicrophylline-B]	–	–	35.8 µg/mL and 69.9 µM	980	0.5 ± 0.06	< 1000	72	4.6 ± 0.005	9000	8	–	–	–	–	–
C/C=C(\C)C(=O)O[C@@H]1C[C@@]2(C)[C@@H]3C=C[C@H]4[C@](C)(CO)[C@@H](N(C)C)CC[C@@]45C[C@@]35CC[C@]2(C)[C@H]1[C@H](C)N(C)C [Compound 4, O-tigloylcyclomicrophylline-A]	–	–	12 µg/mL and 22.8 µM	700	0.35 ± 0.08	< 1000	34	1.5 ± 0.76	2900	8	–	–	–	–	–
CC(C1C(O)CC2(C)C3C=CC4C(C)(CO)C(N(C)C)CCC45CC35CCC12C)N(C)C (stereo not drawn) [Compound 5, Cyclomicrophylline-A]	–	–	–	1760	–	–	–	–	–	–	44 ± 2.3	99000	0.78 ± 0.08	1.04 ± 0.27	2340
CC(C1C(OC(=O)c2ccccc2)CC2(C)C3C=CC4C(C)(CO)C(N(C)C)CCC45CC35CCC12C)N(C)C (stereo not drawn) [Compound 6, Cyclomicrophyllidine-A]	–	–	–	700	–	–	–	–	–	–	9.3 ± 3	17000	0.4 ± 0.02	0.69 ± 0.06	1300
CN[C@@H](C)[C@H]1[C@H](OC(=O)c2ccccc2)C[C@@]2(C)[C@@H]3C=C[C@H]4[C@](C)(CO)[C@@H](N(C)C)CC[C@@]45C[C@@]35CC[C@]12C [Compound 7, Cyclomicrophyllidine-B]	–	–	16 µg/mL and 29.9 µM	–	0.11 ± 0.01	200	145	1.9 ± 0.3	3600	8	–	–	–	–	–
CN[C@@H](C)[C@H]1CC[C@@]2(C)[C@@H]3CC[C@H]4C(C)(C)[C@@H](NC)[C@H](OC(=O)c5ccccc5)C[C@@]45C[C@@]35CC[C@]12C [Compound 8, O-benzoyl-cycloprotobuxoline-D]	–	–	6.65 µg/mL and 13.1 µM	–	0.09 ± 0.03	180	74	0.55 ± 0.18	1100	12	–	–	–	–	–
CC(=O)OC[C@]1(C)[C@@H](NC(=O)c2ccccc2)CC[C@]23C[C@]24C(=O)C[C@]2(C)[C@@H]([C@H](C)N(C)C)CC[C@@]2(C)[C@@H]4CC[C@@H]13 [Compound 9, N-benzoyl-O-acetyl-cycloxo-buxoline-F]	–	–	–	3800	–	–	–	–	–	–	41 ± 0.7	73000	2.15 ± 0.29	1.35 ± 0.45	2400
C[C@@H]([C@H]1[C@H](O)C[C@@]2(C)[C@@H]3CC[C@@H]4[C@@]5(CCC(=O)[C@@]4(C)CO)C[C@@]35CC[C@]12C)N(C)C [Compound 11, 29-hydroxy-cyclomikuranine-L]	–	–	44 µg/mL and 105 µM	–	0.9 ± 0.13	2200	49	2.9 ± 1	7000	15	–	–	–	–	–
C[C@@H]([C@H]1[C@H](O)C[C@@]2(C)[C@@H]3CC[C@H]4C(C)(C)C(=O)C=C[C@@]45C[C@@]35CC[C@]12C)N(C)C [Compound 12, Nb-dimethylcycloxobuxoviricine]	–	–	–	3500	–	–	–	–	–	–	19 ± 1.2	47600	1.4 ± 0.44	2.5 ± 0.1	6300

Reference: article PMC8228141, “Antiprotozoal Nor-Triterpene Alkaloids from Buxus sempervirens L” (Antibiotics, 2021)
